Measured values from patent US20120058133A1, “INHIBITION OF TRNA SYNTHETASES AND THERAPEUTIC APPLICATIONS THEREOF” (President and Fellows of Harvard College, priority 2009, published 2012).
“Also recorded” adds a separate entry of the source.

Experiments:
[1] = tested on: mouse embryo fibroblasts (MEFs); assay: ECM gene expression and protein production in MEFs; assay type: cell-based
Experimental: FIG. 26C. Proline rescues both HF stimulated and HF inhibited gene expression. MEFs were treated with or without HF (50 nM) and/or Proline (2 mM) for 4 hours (CHOP, S100A4) or 24 hours (CoLIA1, ColIA2). DMSO was used as vehicle control. Changes in mRNA levels are expressed as fold-change relative to control and normalized to expression of TBP. Error bars reflect standard deviation of determinations from plates of cells treated in triplicate, confidence interval (p-value) for the effect of HF alone versus HF+Pro was determined using a two-tailed Student's t test. Data are representative of two separate experiments.
FIG. 26D. HF-inhibition of collagen production is rescued by proline and doesn't affect overall protein synthesis. Cells were pre-incubated with HF with or without proline for 4 hours, and ^35S-methionine and HF with or without proline was added. 24 hours later, conditioned medium and total cell lysate was harvested. New production of Type I procollagen was measured in conditioned medium by Western blot, and bands quantitated using Image J quantitation software. The original blot is shown in FIG. 27; total protein synthesis was measured as TCA-precipitable ^35S in a scintillation counter. Error bars reflect standard deviation of triplicate determinations.
FIG. 33. Proline rescues HF-suppression of ECM protein production. MEFs were incubated for 4 hours in HF with or without 2 mM Pro, to measure new collagen production in conditioned medium (cells were washed into fresh DMEM/0.2% FBS with fresh HF and proline re-added, and either conditioned medium (for Type I procollagen) or total cell lysate (for fibronectin, […]) harvested twenty four hours later. Protein levels were assayed by Western blot.
Q-PCR was performed using the Roche LightCycle UPR system, using the following primers and probes: […]

[2] = tested on: TGFβ signaling; assay: Lymphocyte responses to TGFβ (Smad phosphorylation and others); assay type: cell-based, mouse; settings: low dose HF; 10 μM SB-431542
Experimental: FIG. 8. […] FIG. 8A is a set of FACS analyses of CD4^+ CD25^− T cells activated in Th1 or Th2 polarizing conditions, either in the presence or absence of TGFβ. DMSO, 10 nM HF, 10 nM MAZ1310, or 10 μM SB-431542 added as indicated at the time of activation. Intracellular cytokine staining was performed on expanded T cells on day 5.
FIG. 8B is a set of FACS analyses of CD8^+ T cells activated in the presence or absence of TGFβ and cultured with DMSO, 10 nM HF, 10 nM MAZ1310, or 10 μM SB-431542. Expanded cells were restimulated on day 5 and intracellular staining was performed.
FIG. 8C is a set of FACS analyses of CFSE-labeled B cells activated by LPS stimulation in the presence or absence of TGFβ plus DMSO, 10 nM HF, 10 nM MAZ1310, or 10 μM SB-431542. Intracellular IL-6 production in B cells restimulated with PMA plus ionomycin, or cell-surface IgA expression was determined 4 days after activation.
FIG. 8D depicts western blot analyses of purified CD4^+ CD25^− T cells treated with DMSO, 40 nM MAZ1310, titrating concentrations of HF (2.5-40 nM) or 10 μM SB-431542 for 30 minutes in complete medium supplemented with 0.1% fetal calf serum. T cells were then activated in the presence or absence of 3 ng/ml TGFβ. Whole cell extracts were prepared after 1 hour of stimulation and western blot analyses were performed using the indicated antibodies. […]

[3] = tested on: dermal ECM deposition; settings: Pines et al. 2003; cited from earlier work

O=C(CC1NCCCC1O)Cn1cnc2cc(Br)c(Cl)cc2c1=O (racemic) [HF, halofuginone]
mRNA levels of ColIA1, ColIA2, and S100A4 ([1]; 50 nM HF, 4 or 24 hours): inhibited mRNA levels | CHOP mRNA expression ([1]; 50 nM HF, 4 hours): stimulated | reversal of HF effects on ECM genes and proteins by proline ([1]; 2 mM proline): reversed by the addition of 2 mM proline | production of fibronectin ([1]; 24 hours): dramatically inhibited | production of secreted Type I procollagen protein ([1]; 24 hours): dramatically inhibited | TGFβ-induced Smad phosphorylation and other lymphocyte responses to TGFβ [2]: inhibited neither | dermal ECM deposition [3]: potently reduces dermal extracellular matrix (ECM) deposition; also recorded: reduces excess dermal ECM deposition
